Experimental findings from PubChem BioAssay (NCI) are described below.

Holding throughout (assay): inhibition of tumour cell growth, NCI panel, 48 h
Assay [1] has as its system HL-60(TB) leukemia.
The subject of assay [2] is A498 renal.
Assay [3] relates to SNB-19 CNS.
Assay [4] concerns MCF7 breast.
Assay [5] has as its system NCI-H226 lung.
The test system of assay [6] is KM12 colon.
Assay [7] has as its system SK-MEL-28 melanoma.
In assay [8] the test system is LOX IMVI melanoma.
Assay [9] relates to SK-MEL-5 melanoma.
Assay [10] deals with HS 578T breast.

SMILES strings stand for the structures.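 Grown in 96-well plates, cells were treated for 48 hours with each compound at five concentrations. Insufficient inhibition: endpoint recorded as highest concentration tested. The concentration for 50% growth inhibition is given as GI50. TGI denotes the concentration required for complete inhibition of growth.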

`Cc1[nH]c(=O)[nH]c(=O)c1/C=C/C(=O)NC(CO)CS(=O)Cc1ccccc1` (stereo unspecified): the TGI in assay [1], in assay [2], in assay [3], in assay [4], in [5] and in [6] was above 300 µM each time. Further, the TGI in assay [7], in [8] and in assay [9] was above 300 µM throughout.
Take `CCOC(=O)C(Cc1cn(C(C)=O)c2ccccc12)P(=O)(OCC)OCC` (stereo unspecified): the TGI in assay [10], in [3], in assay [5], in [7], in assay [8] and in assay [9] was above 100 µM each time.
On to `O=C(Nc1ccc(-n2cc(-c3ccncc3)c(-c3ccc(O)c(Cl)c3)n2)cc1)Nc1ccc(Cl)c(C(F)(F)F)c1`, for which the GI50 in assay [1] is 2.54 µM; in assay [10], 2.43 µM; in assay [2] it was 14.8 µM; in assay [3], 5.06 µM; in assay [4], 3.06 µM; in [5] it was 21.4 µM. Besides, the GI50 in assay [6] is 3.8 µM; in [7] it was 3.64 µM; in [8], 2.14 µM; in assay [9], 2.87 µM. Besides, the TGI in assay [1] stood at 6.27 µM; in assay [10] it was 13 µM; in [2] it was 34.3 µM; in assay [3], 19 µM; in assay [4] it was 13.4 µM; in [5] it was 51.8 µM. For the same molecule, the TGI worked out at 12.8 µM in [6], 15 µM in [7], 18 µM in assay [8] and 10.7 µM in assay [9].
With `O=C(O)CCc1nc2ccccc2[nH]1`, the TGI in assay [1], in assay [10], in assay [2], in [3], in assay [4] and in [5] was above 100 µM in each case. Besides, the TGI in [6], in assay [7], in assay [8] and in [9] was above 100 µM each time.
Take `COc1ccc(OC)c(C2CCc3c(cnc4nc(N)nc(N)c34)C2)c1` (stereo unspecified): the TGI was determined as 25.9 µM in assay [1]; 53 µM in [10]; 27.4 µM in assay [2]; 21.5 µM in [3]; 24.3 µM in assay [4]; 54.8 µM in assay [5]. Besides, the TGI in assay [6] was 26.4 µM; in [7], 29.4 µM; in assay [8], 15.5 µM; in assay [9], 33.4 µM.
With `Cn1ccc(C(=O)NCCN(CCNC(=O)c2ccn(C)c(=O)c2O)CCNC(=O)c2ccn(C)c(=O)c2O)c(O)c1=O`, the TGI in assay [1], in assay [10], in assay [2], in [3], in assay [4] and in assay [5] was above 100 µM throughout. For the same molecule, the TGI in assay [6], in [7] and in assay [9] was above 100 µM in each case.
Turning to `CC(=O)O[C@@H]1C(=O)N(c2ccccc2)[C@@H]1c1cc2ccccc2c2ccccc12`, the TGI in assay [1] was 58.2 µM; in assay [10] it was above 100 µM; in [2], above 100 µM; in assay [3] it was above 100 µM; in assay [4], above 100 µM; in assay [5] it was above 100 µM. Further, the TGI was above 100 µM in assay [6], above 100 µM in assay [7], 64.3 µM in [8] and 59.4 µM in assay [9].
As to `COc1ccc(C(O)(c2ccccc2)c2nccc3ccccc23)cc1` (stereo unspecified), the TGI in assay [1], in assay [10], in assay [3], in assay [4], in [6] and in assay [7] was above 100 µM throughout. The values for the TGI in assay [8] and in assay [9] were above 100 µM and 12.7 µM, respectively.
As to `CC(C)C(=O)CC(c1ccc(Cl)cc1)N1N=C(C(C)C)CC1c1ccc(Cl)cc1` (stereo unspecified), the TGI in assay [1] is 76.8 µM; in assay [3] it was above 100 µM; in assay [5], above 100 µM; in assay [6], above 100 µM; in assay [7], above 100 µM; in assay [8], above 100 µM. This molecule also showed a TGI in assay [9] above 100 µM.
`C/C(=N\NC(=S)N(C)C)c1nc2ncccc2[nH]1`: the TGI is 1.32 µM in assay [1]; 7.85 µM in [10]; 69.5 µM in assay [2]; 36.1 µM in assay [3]; above 100 µM in [4]; 2.05 µM in assay [5]. Besides, the TGI was above 100 µM in [7], above 100 µM in assay [8] and 1.87 µM in [9].
Consider `OCCCNc1ncnc2[nH]ncc12`, for which the TGI in assay [1], in assay [10], in [2], in [3], in assay [4] and in [5] was above 100 µM each time. Further, the TGI in [6], in [7], in assay [8] and in assay [9] was above 100 µM in each case.
`C/C(=N\NC(=S)NCCCCNC(=S)N/N=C(\C)c1ccccn1)c1ccccc1`: the TGI in assay [10] is above 100 µM; in assay [2], 15 µM; in assay [3], above 87.1 µM; in assay [5], above 23.6 µM; in [6] it was above 100 µM; in assay [7], above 100 µM. Further, the TGI in assay [8] worked out at 14.3 µM.
Consider `COc1cc(/C=N\c2nc(-c3ccc(NS(=O)(=O)c4ccc(Cl)c(OC)c4)cc3)cs2)ccc1O`, for which the TGI in assay [1] was 74 µM; in assay [10] it was above 100 µM; in assay [3], above 100 µM; in [4], 56.2 µM; in assay [5] it was above 100 µM; in [6] it was above 100 µM. Besides, the TGI in assay [7], in assay [8] and in assay [9] was above 100 µM each time.
For `COc1ccc(-c2cc(-c3ccc(O)cc3O)c(C#N)c(=O)[nH]2)cc1`, the TGI is 65.4 µM in [1]; 48.1 µM in assay [10]; 53.3 µM in [3]; above 100 µM in assay [4]; 55.3 µM in assay [5]; above 100 µM in assay [6]. Besides, the figures for the TGI in [7], in assay [8] and in assay [9] were 33.5 µM, 31.6 µM and 34.6 µM, respectively.
In the case of `CCOC(=O)CCSc1nc2ccc(I)cc2c(=O)n1Cc1ccccc1`, the TGI is above 73.7 µM in assay [1]; above 81.9 µM in [10]; above 79.2 µM in [2]; above 100 µM in assay [3]; above 100 µM in assay [4]; above 100 µM in assay [5]. Also, the TGI was above 100 µM in assay [6], above 100 µM in assay [7], above 77.3 µM in assay [8] and 32 µM in [9].
Regarding `CCCn1cc2c(SC)nc(SC)nc2n1`, the TGI in assay [1], in [2], in assay [3], in assay [5], in assay [6] and in assay [7] was above 100 µM each time. Also, the TGI in [8] and in assay [9] was above 100 µM in each case.
Turning to `O=C(O)c1cc(=O)c2c(OCC(O)COc3cccc4oc(C(=O)O)cc(=O)c34)cccc2o1`, the TGI in [1] was above 100 µM; in assay [10], above 100 µM; in [2] it was above 83.6 µM; in assay [3], above 100 µM; in assay [4], above 100 µM; in [5], above 100 µM. For the same molecule, the TGI in assay [6] was above 100 µM; in assay [7], above 100 µM; in assay [8], above 100 µM; in assay [9], 99.2 µM.
For the molecule `c1ccc(C(NC2=NCCO2)c2ccccc2)cc1`, the TGI in [1], in assay [10], in [2], in [3], in assay [4] and in assay [5] was above 10 µM each time. The TGI in assay [6], in assay [7], in [8] and in assay [9] was above 10 µM in each case.
